This is an account of results in ChEMBL document CHEMBL1124647, “Conformational analysis and molecular modeling of 1-phenyl-, 4-phenyl-, and 1-benzyl-1,2,3,4-tetrahydroisoquinolines as D1 dopamine receptor ligands” (J Med Chem, 1989).

For one assay, the target named is D(1A) dopamine receptor (Homo sapiens, UniProt P21728). The assay is described as follows: Binding potency of compound for Dopamine receptor D1 by displacing [3H]SCH-23390 radioligand.
The next assay addresses D(2) dopamine receptor (Homo sapiens, UniProt P14416). The assay is described as follows: Binding potency of compound for Dopamine receptor D2 by displacement of [3H]spiperone. For orientation: Loss of bound radioactivity is the signal in a displacement assay; it reports binding, not function.
Assay [1] in a line: DSAC inhibitory potency obtained by the conversion of [32P]-ATP to [32P]-cAMP.

Sequence of D(2) dopamine receptor (P14416 whole entry): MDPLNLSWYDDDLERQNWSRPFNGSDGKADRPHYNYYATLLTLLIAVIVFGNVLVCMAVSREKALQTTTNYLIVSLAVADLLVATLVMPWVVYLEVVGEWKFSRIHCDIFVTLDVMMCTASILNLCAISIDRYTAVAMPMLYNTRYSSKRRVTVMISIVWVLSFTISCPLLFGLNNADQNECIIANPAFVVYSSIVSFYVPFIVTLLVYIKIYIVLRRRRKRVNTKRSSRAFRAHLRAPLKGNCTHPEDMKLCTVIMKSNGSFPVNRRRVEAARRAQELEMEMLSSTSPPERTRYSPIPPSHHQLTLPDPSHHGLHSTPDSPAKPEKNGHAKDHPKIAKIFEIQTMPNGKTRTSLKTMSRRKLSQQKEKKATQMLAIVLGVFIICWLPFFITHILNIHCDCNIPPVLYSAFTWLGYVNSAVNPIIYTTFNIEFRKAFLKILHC
Sequence of D(1A) dopamine receptor (P21728 whole entry): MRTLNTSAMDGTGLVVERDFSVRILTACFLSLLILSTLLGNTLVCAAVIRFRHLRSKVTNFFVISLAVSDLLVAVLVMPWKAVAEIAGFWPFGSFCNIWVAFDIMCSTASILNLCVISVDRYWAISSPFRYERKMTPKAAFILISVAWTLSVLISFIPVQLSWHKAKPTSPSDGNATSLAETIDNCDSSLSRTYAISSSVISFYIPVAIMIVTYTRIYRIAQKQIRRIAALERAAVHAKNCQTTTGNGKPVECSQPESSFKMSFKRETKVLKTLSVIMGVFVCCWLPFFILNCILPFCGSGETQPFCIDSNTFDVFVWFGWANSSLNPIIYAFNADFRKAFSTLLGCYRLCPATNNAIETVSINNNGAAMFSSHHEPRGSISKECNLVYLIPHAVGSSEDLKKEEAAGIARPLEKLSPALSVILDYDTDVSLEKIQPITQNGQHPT

For `CCCN1CCc2cc(Cl)c(O)cc2[C@@H]1c1ccccc1`, the Ki was 178 nM at D(1A) dopamine receptor and 1910 nM at D(2) dopamine receptor. In addition, the “Log Ki” value in assay [1] was -6.69.

On to `CN1CCc2cc(Cl)c(O)cc2[C@@H]1c1ccccc1`, for which the Ki at D(1A) dopamine receptor is 6.61 nM; at D(2) dopamine receptor it was 1860 nM. In addition, the “Log Ki” value in assay [1] is recorded as -8.18.

Consider `Oc1cc2c(cc1Cl)CNC[C@H]2c1ccccc1`, for which the Ki is 282 nM at D(1A) dopamine receptor and 1820 nM on D(2) dopamine receptor. Also, in assay [1], the “Log Ki” value is recorded as -6.2.

For the compound `CN1CCc2cc(Cl)c(O)cc2[C@H]1c1ccccc1`, the Ki was 447 nM at D(1A) dopamine receptor and 19100 nM at D(2) dopamine receptor. In addition, in assay [1], the “Log Ki” value is listed as -6.25.

`CN1CCc2cc(Cl)c(O)cc2[C@@H](c2ccccc2)C1` [SCH-23390]: the “Log Ki” value in assay [1] is reported as -9.33.

For the compound `Oc1cc2c(cc1Cl)CCN[C@H]2c1ccccc1`, the Ki on D(1A) dopamine receptor was 141 nM; on D(2) dopamine receptor, 3720 nM. Besides, the “Log Ki” value in assay [1] was -6.96.

Turning to `CN1Cc2cc(Cl)c(O)cc2[C@H](c2ccccc2)C1`, the Ki on D(1A) dopamine receptor is 87.1 nM; on D(2) dopamine receptor, 263 nM. Also, the “Log Ki” value in assay [1] is -6.99.

As for `CN1CCc2cc(Cl)c(O)cc2[C@@H]1Cc1ccccc1`, the Ki on D(1A) dopamine receptor is 26.9 nM; on D(2) dopamine receptor it was 145 nM. Also, the “Log Ki” value in assay [1] is given as -8.2.

For orientation: Ki means a measure of affinity in units of concentration, obtained from inhibition or displacement. A higher Ki goes with weaker binding.
